Consider ten compounds from patent US20250154171A1, “RAS INHIBITORS” (Revolution Medicines, Inc., priority 2023, published 2025).

Read-outs that look alike come from different tables or passages of the source.

The compound `CO[C@@H](C)c1ncc(N2CCN(C3CC3)CC2)cc1-c1c2c3cc(ccc3n1CCOC1CCOCC1)-c1csc(n1)[C@@H](N1CCCC1)[C@H](NC(=O)OC(C)(C)C)C(=O)N1CCC[C@H](N1)C(=O)OCC(C)(C)C2` returned a ring closure, isolated yield (from CO[C@@H](C)c1ncc(N2CCN(C3CC3)CC2)cc1-c1c(CC(C)(C)CO)c2cc(-c3csc([C@H]([C@H](NC(=O)OC(C)(C)C)C(=O)N4CCC[C@@H](C(=O)O)N4)N4CCCC4)n3)ccc2n1CCOC1CCOCC1, ester bond, 18-membered ring, EDCI/HOBt/DIEA, CH2Cl2, 9.59 mM, 25.0 °C) of 54.7%.
With “tert-butyl ((6^3S,3R,4S)-1^2-(5-(4-cyclopropylpiperazin-1-yl)-2-((S)-1-methoxyethyl)pyridin-3-yl)-3-ethoxy-10,10-dimethyl-5,7-dioxo-1^1-(2-((tetrahydro-2H-pyran-4-yl)oxy)ethyl)-6^1,6^2,6^3,6^4,6^5,6^6-hexahydro-1^1H-8-oxa-2 (5,2)-oxazola-1(5,3)-indola-6(1,3)-pyridazinacycloundecaphane-4-yl) carbamate”, where the note is “cc_pd bond, 18-membered ring, XPhos Pd G3/XPhos/K3PO4, toluene/dioxane/H2O, 53.0 mM, 80.0 °C”, the ring closure, isolated yield was 16.3%.
Compound `CO[C@@H](C)c1ncccc1-c1c2c3cc(ccc3n1CCO[C@H]1CCOC(C)(C)C1)-c1coc(n1)C[C@H](NC(=O)OC(C)(C)C)C(=O)N1N[C@H](C(=O)OCC(C)(C)C2)C2CC1C2` gave a ring closure, isolated yield (from CO[C@@H](C)c1ncccc1-c1c(CC(C)(C)CO)c2cc(-c3coc(C[C@H](NC(=O)OC(C)(C)C)C(=O)N4N[C@H](C(=O)O)C5CC4C5)n3)ccc2n1CCO[C@H]1CCOC(C)(C)C1, ester bond, 18-membered ring, EDCI/HOBt/DIEA, MeCN, 11.5 mM, 35.0 °C, 2.0 h) of 30.6%.
As for `CO[C@@H](C)c1ncccc1-c1c2c3cc(ccc3n1CCOC1CCOCC1)-c1csc(n1)[C@@H](N1CCOC[C@@H]1C#N)[C@H](NC(=O)OC(C)(C)C)C(=O)N1CCC[C@H](N1)C(=O)OC(C)(C)C2`, the ring closure, isolated yield (from CO[C@@H](C)c1ncccc1-c1c(CC(C)(C)O)c2cc(-c3csc([C@H]([C@H](NC(=O)OC(C)(C)C)C(=O)N4CCC[C@@H](C(=O)O)N4)N4CCOC[C@@H]4C#N)n3)ccc2n1CCOC1CCOCC1, ester bond, 18-membered ring, EDCI/HOBt/DIEA, CH2Cl2, 10.4 mM, 25.0 °C, 2.0 h) stood at 31%.
As to `CO[C@@H](C)c1ncc(N2CCN(C3CC3)CC2)cc1-c1c2c3cc(ccc3n1CCOC1CCOCC1)-c1csc(n1)[C@@H](N1CC3(COC3)C1)[C@H](NC(=O)OC(C)(C)C)C(=O)N1CCC[C@H](N1)C(=O)OCC(C)(C)C2`, the ring closure, isolated yield (from CO[C@@H](C)c1ncc(N2CCN(C3CC3)CC2)cc1-c1c(CC(C)(C)CO)c2cc(-c3csc([C@H]([C@H](NC(=O)OC(C)(C)C)C(=O)N4CCC[C@@H](C(=O)O)N4)N4CC5(COC5)C4)n3)ccc2n1CCOC1CCOCC1, ester bond, 18-membered ring, EDCI/HOBt/DIEA, CH2Cl2, 9.35 mM, 25.0 °C) came to 27.3%.
For the compound `CO[C@@H](C)c1ncc(N2CCN(C(=O)OCc3ccccc3)CC2)cc1-c1c2c3cc(ccc3n1CCO[C@H]1CCOC(C)(C)C1)-c1nc(co1)[C@@H](N1CCCC1)[C@H](NC(=O)OC(C)(C)C)C(=O)N1N[C@H](C(=O)OCC(C)(C)C2)C2CC1C2`, where the note is “from CO[C@@H](C)c1ncc(N2CCN(C(=O)OCc3ccccc3)CC2)cc1-c1c(CC(C)(C)COC(=O)[C@H]2NN(C(=O)[C@@H](NC(=O)OC(C)(C)C)[C@@H](c3coc(Br)n3)N3CCCC3)C3CC2C3)c2cc(B3OC(C)(C)C(C)(C)O3)ccc2n1CCO[C@H]1CCOC(C)(C)C1, cc_pd bond, 18-membered ring, Pd(DtBPF)Cl2/K3PO4, toluene/dioxane/H2O, 15.9 mM, 80.0 °C, 2.0 h”, the ring closure, isolated yield is 24%.
`CO[C@@H](C)c1ncc([C@@H]2CCN(C3CC3)C2)cc1-c1c2c3cc(ccc3n1CCOC1CCOCC1)-c1csc(n1)[C@@H](N1CC(C)(OC)C1)[C@H](NC(=O)OC(C)(C)C)C(=O)N1CCC[C@H](N1)C(=O)OCC(C)(C)C2` came in with a ring closure, isolated yield (from CO[C@@H](C)c1ncc([C@@H]2CCN(C3CC3)C2)cc1-c1c(CC(C)(C)CO)c2cc(-c3csc([C@H]([C@H](NC(=O)OC(C)(C)C)C(=O)N4CCC[C@@H](C(=O)O)N4)N4CC(C)(OC)C4)n3)ccc2n1CCOC1CCOCC1, ester bond, 18-membered ring, EDCI/HOBt/DIEA, CH2Cl2, 9.4 mM, 25.0 °C, 16.0 h) of 43.6%.
Where the note is “from C[C@H](OC[C@H](C)OCCBr)c1ncccc1-c1[nH]c2ccc(Br)cc2c1CC(C)(C)CO[Si](c1ccccc1)(c1ccccc1)C(C)(C)C, amine bond, 11-membered ring, Cs2CO3, DMF, 119.0 mM, 60.0 °C, 1.0 h”, `C[C@@H]1OC[C@H](C)OCCn2c(c(CC(C)(C)CO[Si](c3ccccc3)(c3ccccc3)C(C)(C)C)c3cc(Br)ccc32)-c2cccnc21` gave a ring closure, isolated yield of 76.9%.
As for `CO[C@@H](C)c1ncc(N2CCN(C3CC3)CC2)cc1-c1c2c3cc(ccc3n1CCO[C@H]1CCOC(C)(C)C1)-c1coc(n1)[C@@H](N1CC3(COC3)C1)[C@H](NC(=O)OC(C)(C)C)C(=O)N1CC3CC(C3)(N1)C(=O)OCC(C)(C)C2`, under “from CO[C@@H](C)c1ncc(N2CCN(C3CC3)CC2)cc1-c1c(CC(C)(C)CO)c2cc(-c3coc([C@H]([C@H](NC(=O)OC(C)(C)C)C(=O)N4CC5CC(C(=O)O)(C5)N4)N4CC5(COC5)C4)n3)ccc2n1CCO[C@H]1CCOC(C)(C)C1, ester bond, 18-membered ring, PyBOP/DMAP/DIEA, CH2Cl2, 1.83 mM, 20.0 °C, 15.0 h”, the ring closure, isolated yield worked out at 62.5%.
The compound “tert-butyl ((6^4S,3S,4S,Z)-12-(5-(4-cyclopropylpiperazin-1-yl)-2-((S)-1-methoxyethyl)pyridin-3-yl)-10,10-dimethyl-3-morpholino-5,7-dioxo-11-(2-((tetrahydro-2H-pyran-4-yl)oxy)ethyl)-11H-8-oxa-6^2,6^3-diaza-2(4,2)-thiazola-1(5,3)-indola-6 (2,4)-bicyclo[3.1.1]heptanacycloundecaphane-4-yl) carbamate” gave a ring closure, isolated yield (ester bond, 18-membered ring, EDCI/HOBt/DIEA, CH2Cl2, 4.68 mM, 30.0 °C) of 41%.
